This note sets out measurements from patent US7781565B2 (priority 2006, dated 2010).

For the test, the system named is NCI-60 cell lines. The format is cell-based, human.

Entries after “also recorded” stand apart in the source; their conditions may differ.

Turning to WLLRSWS, the “Cell Line the peptide is associated with (peptide recovered from phage library selection on this NCI-60 cell line)” value is “CAIK-1 Renal”.
As to LQHLGSG, the “Cell Line (NCI-60 cell line the peptide and its motif are associated with)” value is recorded as “OVCAR-8 Ovarian”.
On to ARAIGLG, for which the “Cell Line with which the peptide (and its tripeptide motif) is associated” value (from here on “Cell Line with which the peptide”) was “Molt-4-Leukemia”.
GLVRRVV: the “Cell Line the peptide is associated with (peptide recovered from phage library selection on this NCI-60 cell line)” value is given as “CAIK-1 Renal”.
Consider PFPARSS, for which the “Cell Line with which the peptide” value was “H23-Lung”.
With AGLTIGI, the “Cell Line (NCI-60 cell line the peptide is associated with)” value is reported as “SNB-19 CNS; also recorded: SF-539 CNS”.
The same measure, in the same setting: to WLLSARL belongs “HCC-2998-Colon”.
Consider RAGGGAP, for which the “Cell Line the peptide is associated with (peptide recovered from phage library selection on this NCI-60 cell line)” value is recorded as “ACHN Renal”.
For SNPGSGS, the “Cell Line (NCI-60 cell line the peptide and its motif are associated with)” value is listed as “UACC62 Melanoma”.
Consider QLLSQVY, for which the “Cell Line the peptide is associated with (peptide recovered from phage library selection on this NCI-60 cell line)” value is given as “MCF-7 Breast”.
Consider RTGSSDL, for which the “Cell Line with which the peptide” value is “Hop-92-Lung”.
For the substance RAVWRAS, the “Cell Line (NCI-60 cell line the peptide and its motif are associated with)” value is “SK-MEL-2 Melanoma”.
Regarding GLRKAGF, the “Cell Line with which the peptide” value is on record as “SR Leukemia”.
TRLSFRH: the “Cell Line (NCI-60 cell line the peptide and its motif are associated with)” value is recorded as “SK-OV-3-3 Ovarian”.
On the same count and under the same terms, the entry for YLAGGKA is “IGROV1 Ovarian”; for AWAGGDM it is “DU-145 Prostate”.
As for GEHGLGA, the “Cell Line with which the peptide” value is given as “H23-Lung”.
Turning to LYGGVRY, the “Cell Line with which the peptide” value is listed as “A549-Lung”.
Turning to EVLVSGD, the “Cell Line with which the peptide” value is given as “Molt-4-Leukemia”.
Turning to RIDAGGG, the “Cell Line (NCI-60 cell line the peptide is associated with)” value is reported as “SW620-Colon”.
As for ASYAGLV, the “Cell Line (NCI-60 cell line the peptide and its motif are associated with)” value is listed as “IGROV1 Ovarian”.
For SRAVIDM, the “Cell Line with which the peptide” value is given as “CCRF-CEM Leukemia”.
Turning to GAVRSVM, the “Cell Line the peptide is associated with (peptide recovered from phage library selection on this NCI-60 cell line)” value is given as “TK-10 Renal”.
On to GAGLGVS, for which the “Cell Line (NCI-60 cell line the peptide and its motif are associated with)” value is “IGROV1 Ovarian”.
GAGTSEG: the “Cell Line the peptide is associated with (peptide recovered from phage library selection on this NCI-60 cell line)” value is given as “TK-10 Renal”.
GGLEQDG: the “Cell Line the peptide is associated with (peptide recovered from phage library selection on this NCI-60 cell line)” value is reported as “SN12C Renal”.
Consider GLGGGGS, for which the “Cell Line (NCI-60 cell line the peptide is associated with)” value is reported as “SF-268 CNS”.
As to IGAASWF, the “Cell Line the peptide is associated with (peptide recovered from phage library selection on this NCI-60 cell line)” value is given as “MCF-7 Breast”.
PLRVLKR: the “Cell Line (NCI-60 cell line the peptide is associated with)” value is “SF-295 CNS”.
As to LLSRAQA, the “Cell Line the peptide is associated with (peptide recovered from phage library selection on this NCI-60 cell line)” value is recorded as “BT-549 Breast”.
Turning to RGVKLGD, the “Cell Line (NCI-60 cell line the peptide is associated with)” value is recorded as “SW620-Colon”.
As to LGLVHWV, the “Cell Line the peptide is associated with (peptide recovered from phage library selection on this NCI-60 cell line)” value is given as “MDA-MB-231 Breast”.
As for GSSRTFR, the “Cell Line with which the peptide” value was “A549-Lung”.
Turning to ERGVFVY, the “Cell Line the peptide is associated with (peptide recovered from phage library selection on this NCI-60 cell line)” value is reported as “T-47D Breast”.
RLSALTD: the “Cell Line (NCI-60 cell line the peptide is associated with)” value is listed as “HT-29 Colon”.
TLGSVRV: the “Cell Line (NCI-60 cell line the peptide and its motif are associated with)” value was “SK-MEL-5 Melanoma”.
As for RVRSSLA, the “Cell Line the peptide is associated with (peptide recovered from phage library selection on this NCI-60 cell line)” value was “HS 578 T Breast”.
For LGSSSHI, the “Cell Line the peptide is associated with (peptide recovered from phage library selection on this NCI-60 cell line)” value is reported as “NCI/ADR-RES Breast”.
As for FSPRGSV, the “Cell Line (NCI-60 cell line the peptide is associated with)” value is reported as “SNB-19 CNS; also recorded: SF-539 CNS”.
The same measure, in the same setting: to IAAVWRS belongs “HCT-116 Colon”; to AGGWWVG, “HCT-15 Colon”.
Still for that read-out and setting: the entry for LLSGVIL is “LOX-IMVI Melanoma”.
In the case of GAGVEYF, the “Cell Line the peptide is associated with (peptide recovered from phage library selection on this NCI-60 cell line)” value was “RXF393 Renal”.
Consider NMAGGQE, for which the “Cell Line (NCI-60 cell line the peptide and its motif are associated with)” value was “IGROV1 Ovarian”.
